The results in this text go back to patent US20240327423A1, “A SERIES OF PYRROLE DERIVATIVES AND THEIR PREPARATION METHOD AND THERAPEUTIC USE” (SHENZHEN SUNGENING BIO-MEDICAL CO., LTD, priority 2020, published 2024).

In this assay the test system is Aspergillus fumigatus (ATCC MYA-4609/AF293/CBS 101355). In words: Measurement of minimum inhibitory concentration (MIC), AF293. The format is cell-based. Here is the method:
New streaks are made with glycerol stock solution of the strains of Aspergillus fumigatus (ATCC MYA-4609/AF 293/CBS 101355) on Sabouraud's dextrose agar (SDA), incubate at 35° C. and a humidity of 40-70% for 72 hours. Other strains are processed as the same as AF293.
RPMI1640: one packet of RPMI1640 powder is dissolved in 1 L purified water and mixed well, add 0.165M MOPS, adjust the pH to 7.0, sterilize by filtration with 0.22 um membrane, and store at 4° C. for no more than 3 months.
Physiological saline: weigh 9 g of sodium chloride powder and dissolve in 1 L of purified water, and mixed well. Sterilize at 121° C. for 30 min, store at room temperature (RT) for no more than 1 week.
Dissolve the test compound and stock solution of one control compound with DMSO and obtain solutions at a concentration of 12.8 mg/mL
The maximum concentration of each compound is 0.8 mg/mL (e.g., 150 μL of dimethyl sulfoxide+10 uL of 12.8 mg/mL compound/control). Column 1 is filled with 40 μL of compound and columns 2 to 11 with 20 μL of dimethyl sulfoxide. Transfer 20 μL of compound from column 1 to column 2 to dilute the concentration. Repeat the above steps up to column 11 to give 2× serial dilutions.
2 μL of the above 2× serial dilutions are injected into each hole of the corresponding test plate using a multichannel pipette.
Drop 5 ml of saline on the Aspergillus fumigatus SDA plate. The spores were carefully wiped off from the surface of the plate with an L-shaped coating rod. Then the suspension is transferred into a sterile tube. After shaking, let the tube stand for 5 to 10 minutes. Count the number of spores in the upper suspension with a hemocytometer and check the purity. Adjust the inoculum concentration to 0.2-2.5×10^4 spores/mL.
Inject 198 μL of diluted inoculum into each holes of the corresponding test plate using a multichannel pipette.
Incubate at 35° C. for 48 hours.
To facilitate scoring of the presence or absence of growth on the wall, a magnifying glass is used. The tested 96-well microplates were photographed and the optical density at 530 nm is read with an enzyme marker (Tecan Spark).

The mark [1] stands for this setting: Aspergillus fumigatus AF293, 35° C., 48 hours, RPMI1640.
[2] abbreviates: CBS101355, Aspergillus fumigatus AF293, 35° C., 48 hours, RPMI1640, read-out: AF293: MIC.

Converted amounts (≈) assume the structure as drawn. Where two headings read alike, the source gives them in different places.

A word on the MIC: it is the least concentration at which growth counts as inhibited.

`Cc1cc(-c2ccccc2)c(C(=O)C(=O)Nc2ccc3c(c2)COCC2CN(c4ncc(F)cn4)CCN32)n1C` (stereo not drawn) [Example 18, 2-(1,5-dimethyl-3-phenyl-1H-pyrrol-2-yl)-N-(3-(5-fluoropyrimidin-2-yl)-1,2,3,4,4a,5-hexahydro-7H-benzo[e]pyrazino[2,1-c] [1,4]oxazolin-9-yl)-2-oxoacetamide]: the “AF293: MIC” value under setting [1] is 0.03 µg/mL. Still for that read-out and setting: with `Cc1cc(-c2ccccc2)c(C(=O)C(=O)Nc2ccc3c(c2)CC2CN(c4ncc(F)cn4)CCCN32)n1C` (stereo not drawn) [2 (T-2-a), 2-(1,5-dimethyl-3-phenyl-1H-pyrrol-2-yl)-N-(2-(5-fluoropyrimidin-2-yl)-2,3,4,5,11,11a-hexahydro-1H-[1,4]diaza[1,2-a]indol-9-yl)-2-oxoacetamide] the figure was 0.06 µg/mL.

On to `Cc1cc(-c2ccccc2)c(C(=O)C(=O)Nc2ccc3c(c2)OCC2CN(c4ncc(C#N)s4)CCN32)n1C` (stereo not drawn) [Example 12], for which the minimal inhibitory concentration (MIC) under setting [2] was found to be 0.13 µg/mL (≈ 0.241 µM). Same read-out and setting: the value for `COc1cnc(N2CCN3c4ccc(NC(=O)C(=O)c5c(-c6ccccc6)cc(C)n5C)cc4OCC3C2)nc1` (stereo not drawn) [Example 8] was 0.03 µg/mL (≈ 0.0557 µM). On to `Cc1cc(-c2ccccc2)c(C(=O)C(=O)Nc2ccc3c(c2)OCC2CN(c4nccc(Cl)n4)CCN32)n1C` (stereo not drawn) [Example 10], for which the MIC under setting [2] is 0.06 µg/mL (≈ 0.11 µM). On the same count and under the same terms, the value for `Cc1cc(-c2ccccc2)c(C(=O)C(=O)Nc2ccc3c(c2)OCC2CN(c4ccnc(Cl)n4)CCN32)n1C` (stereo not drawn) [Example 11] was 0.5 µg/mL (≈ 0.921 µM); that for `Cc1cc(-c2ccccc2)c(C(=O)C(=O)Nc2ccc3c(c2)OC[C@H]2CN(c4ncc(N5CCOCC5)cn4)CCN32)n1C` [Example 24, (R)-2-(1,5-dimethyl-3-phenyl-1H-pyrrol-2-yl)-N-(3-(5-morpholinopyrimidin-2-yl)-1,2,3,4,4a,5-hexahydrobenzo[b]pyrazino[1,2-d] [1,4]oxazin-8-yl)-2-oxoacetamide] was 0.13 µg/mL (≈ 0.219 µM).

Take `Cc1cc(-c2ccc(F)cc2)c(C(=O)C(=O)Nc2ccc3c(c2)OC[C@H]2CN(c4ncc(F)cn4)CCN32)n1C` [Example 37, (R)-2-(3-(4-fluorophenyl)-1,5-dimethyl-1H-pyrrol-2-yl)-N-(3-(5-fluoropyrimidin-2-yl)-1,2,3,4,4a,5-hexahydrobenzo[b]pyrazino[1,2-d] [1,4]oxazin-8-yl)-2-oxoacetamide]: the MIC under setting [2] is 0.016 µg/mL (≈ 0.0294 µM). For the compound `Cc1cc(-c2ccccc2)c(C(=O)C(=O)Nc2ccc3c(c2)COC[C@@H]2CN(c4ncc(F)cn4)CCN32)n1C` [Example 27], the MIC under setting [2] turned out to be 0.03 µg/mL (≈ 0.0555 µM). For `Cc1cc(-c2ccccc2)c(C(=O)C(=O)Nc2cc(F)c3c(c2)OC[C@H]2CN(c4ncc(F)cn4)CCN32)n1C` [Example 25, (R)-2-(1,5-dimethyl-3-phenyl-1H-pyrrol-2-yl)-N-(10-fluoro-3-(5-fluoropyrimidin-2-yl)-1,2,3,4,4a,5-hexahydrobenzo[b]pyrazino[1,2-d] [1,4]oxazin-8-yl)-2-oxoacetamide], the MIC (Aspergillus fumigatus, CBS101355, 48 h, read-out: AF293: MIC, Aspergillus fumigatus AF293, 35° C., 48 hours, RPMI1640) came out at 0.06 µg/mL (≈ 0.11 µM). Turning to `Cc1cc(-c2ccccc2)c(C(=O)C(=O)Nc2ccc3c(c2)CC2CCN(c4ncc(F)cn4)CCN32)n1C` (stereo not drawn) [2 (T-2-b), 2-(1,5-dimethyl-3-phenyl-1H-pyrrol-2-yl)-N-(3-(5-fluoropyrimidin-2-yl)-2,3,4,5,11,11a-hexahydro-1H-[1,4]diaza[1,7-a]indol-9-yl)-2-oxoacetamide], the “AF293: MIC” value under setting [1] came to 0.06 µg/mL.

With `Cc1cc(-c2ccccc2)c(C(=O)C(=O)Nc2ccc3c(c2)OCC2CN(c4ncc(C#N)cn4)CCN32)n1C` (stereo not drawn) [Example 7, N-(3-(5-cyanopyrimidin-2-yl)-1,2,3,4,4a,5-hexahydrobenzo[b]pyrazino[1,2-d] [1,4]oxazin-8-yl)-2-(1,5-dimethyl-3-phenyl-1H-pyrrol-2-yl)-2-oxyacetamide], under setting [1], the “AF293: MIC” value stood at 0.06 µg/mL. Turning to `Cc1cc(-c2ccccc2)c(C(=O)C(=O)Nc2ccc3c(c2)OCC2CN(c4ccc(F)cn4)CCN32)n1C` (stereo not drawn) [Example 14], the MIC under setting [2] amounted to 0.06 µg/mL (≈ 0.114 µM). On to `Cc1cc(-c2ccccc2)c(C(=O)C(=O)Nc2ccc3c(c2)COC[C@H]2CN(c4ncc(F)cn4)CCN32)n1C` [Example 26], for which the minimal inhibitory concentration (MIC) under setting [2] came out at 0.03 µg/mL (≈ 0.0555 µM).

Regarding `Cc1cc(-c2ccccc2)c(C(=O)C(=O)Nc2ccc3c(c2)OC[C@H]2CN(c4ncncn4)CCN32)n1C` [Example 28, (R)—N-(3-(1,3,5-triazin-2-yl)-1,2,3,4,4a,5-hexahydrobenzo[b]pyrazino[1,2-d] [1,4]oxazin-8-yl)-2-(1,5-dimethyl-3-phenyl-1H-pyrrol-2-yl)-2-oxoacetamide], the MIC under setting [2] came to 0.25 µg/mL (≈ 0.491 µM).

Take `Cc1cc(-c2ccccc2)c(C(=O)C(=O)Nc2ccc3c(c2)OCC2CN(c4ncn(C)n4)CCN32)n1C` (stereo not drawn) [Example 17]: the “AF293: MIC” value under setting [1] was 1 µg/mL. `Cc1cc(-c2ccccc2)c(C(=O)C(=O)Nc2ccc3c(c2)OC[C@H]2CN(c4ncc(N5CCC5)cn4)CCN32)n1C` [Example 23, (R)—N-(3-(5-(azetidin-1-yl)pyrimidin-2-yl)-1,2,3,4,4a,5-hexahydrobenzo[b]pyrazino[1,2-d] [1,4]oxazin-8-yl)-2-(1,5-dimethyl-3-phenyl-1H-pyrrol-2-yl)-2-oxoacetamide]: the MIC under setting [2] was determined as 0.13 µg/mL (≈ 0.231 µM). Same read-out and setting: the value for `Cc1cc(-c2cccc(F)c2)c(C(=O)C(=O)Nc2ccc3c(c2)OC[C@H]2CN(c4ncc(F)cn4)CCN32)n1C` [Example 36, (R)-2-(3-(3-fluorophenyl)-1,5-dimethyl-1H-pyrrol-2-yl)-N-(3-(5-fluoropyrimidin-2-yl)-1,2,3,4,4a,5-hexahydrobenzo[b]pyrazino[1,2-d] [1,4]oxazin-8-yl)-2-oxoacetamide] was 0.016 µg/mL (≈ 0.0294 µM); that for `Cc1cc(-c2ccccc2)c(C(=O)C(=O)Nc2ccc3c(c2)OCC2CN(c4ccc(F)nn4)CCN32)n1C` (stereo not drawn) [Example 13] was 0.25 µg/mL (≈ 0.475 µM); that for `Cc1cc(-c2ccccc2)c(C(=O)C(=O)Nc2cnc3c(c2)OCC2CN(c4ncc(F)cn4)CCN32)n1C` (stereo not drawn) [Example 22, 2-(1,5-dimethyl-3-phenyl-1H-pyrrol-2-yl)-N-(8-(5-fluoropyrimidin-2-yl)-6,6a,7,8,9,10-hexahydropyrazino[1,2-d]pyrido[3,2-b] [1,4]oxazin-3-yl)-2-oxoacetamide] was 0.13 µg/mL (≈ 0.246 µM). With `Cc1cc(-c2ccccc2)c(C(=O)C(=O)Nc2ccc3c(c2)CN(C)CC2CN(c4ncc(F)cn4)CCN32)n1C` (stereo not drawn) [Example 31], under setting [1], the “AF293: MIC” value worked out at 1 µg/mL.
